Common to all, as to assay: In vitro antibacterial activity, microbroth dilution method (NCCLS method)
Holding throughout (assay type): cell-based

One test concerns H. influenzae ATCC 43095. To be noted: Haemophilus influenzae, ATCC43095; bacteria symbol A = H. influenzae ATCC 43095; read-out: MIC values (minimum inhibitory concentration). As for the experimental part:
(§1) In vitro antibacterial activities of the compounds of the present invention against various test bacteria were measured according to the microbroth dilution method (NCCLS method). As test compounds, the compounds of Examples 7, 23, 114, 126, 131, 210, 214, 231, 257, 261, 287, 363, 366, 563 and Comparative agent 1: clarithromycin were used. The results are shown as MIC values (minimum inhibitory concentration, μg/ml) in Table 21.

The test system of another test is S. pneumoniae 205. To be noted: Streptococcus pneumoniae; bacteria symbol C = S. pneumoniae 205; read-out: MIC values (minimum inhibitory concentration). The method, then: as §1
A further test relates to S. pneumoniae ATCC 49619. To be noted: Streptococcus pneumoniae, ATCC49619; bacteria symbol B = S. pneumoniae ATCC 49619; read-out: MIC values (minimum inhibitory concentration). The method, then: as §1

Values after ≈ are worked out from the molar mass of the structure shown.

For `CC[C@H]1OC(=O)[C@H](C)[C@@H](O[C@H]2C[C@@](C)(OC)[C@@H](O)[C@H](C)O2)[C@H](C)[C@@H](O[C@@H]2O[C@H](C)C[C@H](N(C)C)[C@H]2O)[C@](C)(OC)C[C@@H](C)C(=O)[C@H](C)[C@@H](O)[C@]1(C)O` [Comparative agent 1, clarithromycin], the values for the MIC with H. influenzae ATCC 43095, in the test on S. pneumoniae 205 and with S. pneumoniae ATCC 49619 were 4 µg/mL (≈ 5.35 µM), greater than 128 µg/mL and 0.03 µg/mL (≈ 0.0401 µM), respectively.

For `CO[C@]1(C)C[C@H](O[C@H]2[C@H](C)[C@@H](O[C@@H]3O[C@H](C)C[C@H](N(C)C)[C@H]3O)[C@@](C)(OC)C[C@@H](C)[C@H](O)[C@H](C)N(C)C(C)C(C)OC(=O)[C@@H]2C)O[C@@H](C)[C@@H]1O` (stereo partly drawn) [Example 261], the MIC was 4 µg/mL (≈ 5.56 µM) with H. influenzae ATCC 43095, 64 µg/mL (≈ 89 µM) in the test on S. pneumoniae 205 and 0.12 µg/mL (≈ 0.167 µM) with S. pneumoniae ATCC 49619.

(Values after patent publication US8097708B2, “10a-Azalide compound” (Taisho Pharmaceutical Co., Ltd., priority 2006, dated 2012).)
